Experiments:
[1] = test system: salispheres of C57BL/6 mice; experiment: Organoid formation assay; format: cell-based, mouse; conditions: 25 μM Alda-341, 7 d
Description: Organoids, defined as having greater than or equal to 5 buds, were blindly counted and quantified as a ratio of organoid number to total number of organoids and undifferentiated spheres. 4 replicates per group. All error bars represent SEM. *=p<0.05; **=p<0.01; ***=p<0.001 (Student's t-test).
Organoid formation assay: Spheres were dissociated in 1 mg/mL dispase (BD Biosciences) for 20 minutes and resuspended in 80% collagen, 10% 10× F12, and 10% Solution C (2.2 g NaHCO3 in 100 mL of 0.05 N NaOH and 200 mM HEPES) and combined with 60% matrigel. 200 spheres per well were plated in a Millicell cell culture insert (EMD Millipore) with sphere media. Organoids defined as having greater than or equal to 5 buds formed after 2-3 d in culture and were grown for 7 d before imaging with a BZ-X710 Keyence microscope using the z-stack function. Images were stitched together into a single image and the number of differentiated organoids and undifferentiated spheres were blindly counted and quantified as a ratio of organoid number to total number of organoids and undifferentiated spheres. Experiments were repeated at least three independent times.

[2] = test system: intact SMG from CD-1 E13.5 embryos; experiment: DarkZone dye aldehyde assay in intact E13.5 embryonic SMG; format: cell-based, mouse; conditions: 25 μM Alda-341 for 24 h, 4 Gy, 3 h after radiation
Description: DarkZone dye aldehyde assay in intact E13.5 embryonic SMG: E13.5 embryonic whole SMG were manually dissected and cultured in DMEM/F12 with 50 ug/mL transferrin and 50 ug/mL Vitamin C for 24 h. Glands were irradiated with 4 or 8 Gy and incubated with 20 uM DarkZone fluorescein aldehyde dye and 10 mM 2,4-Dimethoxyaniline catalyst (TCI America) for 1 h (Yuen, L. H., Saxena, N. S., Park, H. S., Weinberg, K., and Kool, E. T. (2016) Dark Hydrazone Fluorescence Labeling Agents Enable Imaging of Cellular Aldehydic Load. ACS chemical biology 11, 2312-2319). Glands were imaged 3 h after radiation using a Keyence BZ-X710 microscope GFP filter at 10× magnification. Average fluorescence intensity was quantified using Image J (NIH).
After 24 h, the glands were irradiated with 4 Gy and incubated SMG with DarkZone dye to measure intracellular aldehydes. After 3 h, the aldehydic load in the irradiated vehicle control-treated SMG was more than 4-fold greater than the non-irradiated vehicle control-treated SMG.

ALDH1A1 = biological target: T1, ALDH1A1 (Homo sapiens, UniProt P00352); experiment: ALDH enzymatic assay, recombinant ALDH1A1; format: biochemical; conditions: 5 μg/ml recombinant enzyme, 10 mM acetaldehyde, 20 μM Alda-341
T1 sequence (P00352 1-501): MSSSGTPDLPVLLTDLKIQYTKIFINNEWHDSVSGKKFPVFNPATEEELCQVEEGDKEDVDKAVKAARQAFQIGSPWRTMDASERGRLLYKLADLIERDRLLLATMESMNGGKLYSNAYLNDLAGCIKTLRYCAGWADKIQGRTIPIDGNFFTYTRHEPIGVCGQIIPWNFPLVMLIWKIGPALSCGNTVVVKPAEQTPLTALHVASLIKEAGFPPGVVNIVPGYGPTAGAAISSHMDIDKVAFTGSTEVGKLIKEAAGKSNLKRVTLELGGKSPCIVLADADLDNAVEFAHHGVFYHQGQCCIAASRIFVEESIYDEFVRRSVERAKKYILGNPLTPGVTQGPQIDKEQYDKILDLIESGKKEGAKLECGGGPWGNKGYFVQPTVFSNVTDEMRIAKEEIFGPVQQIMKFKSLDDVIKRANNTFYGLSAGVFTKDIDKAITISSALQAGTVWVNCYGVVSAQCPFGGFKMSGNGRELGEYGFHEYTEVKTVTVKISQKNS
Description: (§1) ALDH enzymatic assay: ALDH1A1, ALDH1A2, 2, 3A1, 3A2, 4A1, 5A1, 7A1 were measured as previously described using 5 μg/ml of recombinant protein (Chen, C. H., Cruz, L. A., and Mochly-Rosen, D. (2015) Pharmacological recruitment of aldehyde dehydrogenase 3A1 (ALDH3A1) to assist ALDH2 in acetaldehyde and ethanol metabolism in vivo. Proceedings of the National Academy of Sciences of the United States of America 112, 3074-3079). […] Assays were conducted in 50 mM NaPPi buffer (pH 7.4) in the presence of 2.5 mM NAD^+ and 10 mM substrate and measured in triplicate at 25° C. Dose response curve fits and EC50's were calculated using GraphPad Prism 7 software.

ALDH5A1 = biological target: T2, ALDH5A1 (Homo sapiens, UniProt P51649); experiment: ALDH enzymatic assay, recombinant ALDH5A1; format: biochemical; conditions: 5 μg/ml recombinant enzyme, 10 mM acetaldehyde, 20 μM Alda-341
T2 sequence (P51649 48-535): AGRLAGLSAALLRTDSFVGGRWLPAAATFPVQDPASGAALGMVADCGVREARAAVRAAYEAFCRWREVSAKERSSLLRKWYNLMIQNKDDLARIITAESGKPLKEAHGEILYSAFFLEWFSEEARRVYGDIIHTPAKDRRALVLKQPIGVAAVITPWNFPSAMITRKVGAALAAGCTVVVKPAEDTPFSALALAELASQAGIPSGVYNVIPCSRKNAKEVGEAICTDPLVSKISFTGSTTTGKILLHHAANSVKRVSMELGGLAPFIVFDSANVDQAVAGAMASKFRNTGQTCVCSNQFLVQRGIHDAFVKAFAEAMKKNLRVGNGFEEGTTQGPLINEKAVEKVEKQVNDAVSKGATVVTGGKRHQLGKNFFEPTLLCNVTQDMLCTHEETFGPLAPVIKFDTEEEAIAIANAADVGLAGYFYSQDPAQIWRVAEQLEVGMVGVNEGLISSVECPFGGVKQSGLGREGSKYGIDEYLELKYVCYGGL
Description: as §1

SMILES: C=C(C)[C@H]1CC=C(C)CC1 [Alda-341, D-limonene]
- more organoids than vehicle-treated control [1]: 25%
- aldehydic load after radiation [2]: reduced the aldehydic load to almost non-irradiated levels
- catalytic activity of ALDH1A1 (ALDH1A1): did not increase
- catalytic activity of ALDH5A1 (ALDH5A1): did not increase

— US20190060249A1 (priority 2017, published 2019)
